According to patent US9328088B2, “Luminescent probes for biological labeling and imaging, and process for preparing the same” (CENTRE NATIONAL DE LA RECHERCHE SCIENTIFIQUE, priority 2011, dated 2016):
Several values for one entry are separate records, joined by “and”; a condition that tells them apart may be missing. Equal values may be shown once.

What was measured:
Format in all cases: physicochemical
[1] = Stability of the terbium complexes in various buffers (luminescence half-life τ)
From the text: By way of example, the stability of the terbium complexes synthesized from ligands (I-1) to (I-4) in accordance with the invention in various buffers is given in Table 2 below. By way of comparison, Table 2 also gives the stability of a terbium complex TbL4 of the prior art corresponding to the following formula: […]

[2] = Absorption properties of the terbium complexes; conditions: 0.01M TRIS/HCl buffer at pH = 7.0
From the text: By way of example, all of the absorption and emission properties of the terbium complexes synthesized from ligands (I-1) to (I-4) in accordance with the invention are summarized in Table 1 below: […]

[3] = Emission properties: luminescence half-life τ and luminescence quantum yield φ in H2O and D2O; conditions: for Emission τ (luminescence half-life): error estimated ±5%; for Emission φ (luminescence quantum yield): error estimated ±15%
From the text: The complexes according to the invention have varied applications, depending on the nature of the substituents of the pyridyl group of the ligand.
By way of example, all of the absorption and emission properties of the terbium complexes synthesized from ligands (I-1) to (I-4) in accordance with the invention are summarized in Table 1 below:
The parameters φ and τ represent, respectively, the luminescence quantum yields and the luminescence half-lives. They may be measured in water and in D2O.

SMILES	τ ([1]; H2O, estimated error ±5%) [ms]	τ ([1]; Phosphate 0.1M, pH = 7.0) [ms]	τ ([1]; Tris 50 mM-Serum 50%, pH = 7.0) [ms]	τ ([1]; Tris 0.1M, pH = 7.0) [ms]	τ ([1]; Tris 0.1M-EDTA 10 mM, pH = 7.0) [ms]	τ ([1]; Tris 0.1M-KF 400 mM, pH = 7.0) [ms]	Absorption λabs [2]	quantum yields [3]	Emission τ (luminescence half-life) ([3]; D2O) [s]	Emission φ (luminescence quantum yield) ([3]; D2O) [%]	Emission τ (luminescence half-life) ([3]; H2O) [s]	Emission φ (luminescence quantum yield) ([3]; H2O) [%]
CCOP(=O)([O-])CN(CC(=O)[O-])Cc1ccn(-c2cc(C#Cc3cc(OCCOC)c(C(=O)NCCCC(=O)[O-])cc3OCCOC)cc(-n3ccc(CN(CC(=O)[O-])CP(=O)([O-])OCC)n3)n2)n1.[Na+].[Na+].[Na+].[Na+].[Na+].[Tb+3] [Tb(I-5)]	2.6	2.6	2.5	2.6	2.6	2.5	283 nm and 328 nm	virtually quantitative	0.0031	96	0.0026	88
CCOP(=O)([O-])CN(CC(=O)[O-])Cc1ccn(-c2cc(C#Cc3cc(OCCOC)c(C#CCCCCC(=O)[O-])cc3OCCOC)cc(-n3ccc(CN(CC(=O)[O-])CP(=O)([O-])OCC)n3)n2)n1.[Na+].[Na+].[Na+].[Na+].[Na+].[Tb+3] [Tb(I-6)]	2.6	2.6	2.3	2.4	2.5	2.3	275 nm and 328 nm		0.0032	35	0.0026	26
CCOP(=O)([O-])CN(Cc1ccn(-c2cc(C#Cc3cc(OCCOC)c(C#CCCCCC(=O)[O-])cc3OCCOC)cc(-n3ccc(CN(CP(=O)([O-])OCC)CP(=O)([O-])OCC)n3)n2)n1)CP(=O)([O-])OCC.[Na+].[Na+].[Na+].[Na+].[Na+].[Tb+3] [Tb(I-8)]	3.2	3.2	3.0	3.1	3.1	3.0	272 nm and 327 nm		0.0035	30	0.0032	26
